*1 amine or outer side, *2 acyl side, *3 side chain or, on linkers, in order; H or OH if unused. Where a SMILES comes first, the peptide text is derived from it. [ ]: non-standard residue; d: D form. The star is where a group is joined. X1 = O=C(Cc1ccc(N[*:1])cc1)[*:2]; NH(2-Me-phenyl) = Cc1ccccc1N*; CO = O=C([*:1])[*:2]
Experiments:
α4β1 integrin [1] = molecular target: T1, α4β1 integrin (Homo sapiens, UniProt P05556+P13612); experiment: Inhibition of α4β1 integrin-mediated Jurkat cell adhesion to FN; assay type: cell-based; settings: for IC50: Jurkat cell adhesion to plates coated with FN (10 μg/mL), mean ± SD, three experiments in quadruplicate; for ability to modulate α4β1 integrin-mediated cell adhesion (in words): Jurkat cell adhesion to FN
T1 construct: Jurkat E6.1 cells (expressing α4β1) were maintained as a stationary suspension culture; host or cells: Jurkat E6.1
T1 sequence (P13612 34-1032): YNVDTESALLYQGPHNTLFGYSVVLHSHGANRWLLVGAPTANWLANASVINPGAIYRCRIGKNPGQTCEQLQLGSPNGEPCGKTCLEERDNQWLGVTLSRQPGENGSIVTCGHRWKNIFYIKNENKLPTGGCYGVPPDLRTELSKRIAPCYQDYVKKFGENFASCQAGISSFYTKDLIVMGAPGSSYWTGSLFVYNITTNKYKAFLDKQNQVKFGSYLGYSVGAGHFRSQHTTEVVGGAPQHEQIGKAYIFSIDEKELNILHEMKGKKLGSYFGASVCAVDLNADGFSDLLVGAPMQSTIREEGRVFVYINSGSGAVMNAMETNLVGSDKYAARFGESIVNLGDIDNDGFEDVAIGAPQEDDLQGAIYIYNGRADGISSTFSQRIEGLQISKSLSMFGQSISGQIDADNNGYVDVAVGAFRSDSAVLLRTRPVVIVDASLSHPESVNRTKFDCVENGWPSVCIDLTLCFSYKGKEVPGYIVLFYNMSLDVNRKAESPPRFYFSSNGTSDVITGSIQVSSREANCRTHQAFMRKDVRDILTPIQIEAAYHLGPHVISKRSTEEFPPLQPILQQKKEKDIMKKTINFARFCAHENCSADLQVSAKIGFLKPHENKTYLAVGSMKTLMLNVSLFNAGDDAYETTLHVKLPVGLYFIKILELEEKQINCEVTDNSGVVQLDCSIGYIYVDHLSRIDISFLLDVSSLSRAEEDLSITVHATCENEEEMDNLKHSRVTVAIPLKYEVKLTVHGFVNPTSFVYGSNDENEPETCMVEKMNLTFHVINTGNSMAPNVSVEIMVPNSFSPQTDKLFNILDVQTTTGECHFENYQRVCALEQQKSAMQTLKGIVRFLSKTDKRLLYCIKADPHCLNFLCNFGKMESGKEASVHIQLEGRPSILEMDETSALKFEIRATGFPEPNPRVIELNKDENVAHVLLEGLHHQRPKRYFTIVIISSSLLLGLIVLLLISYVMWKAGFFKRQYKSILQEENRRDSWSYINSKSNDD
T1 sequence (P05556 21-798): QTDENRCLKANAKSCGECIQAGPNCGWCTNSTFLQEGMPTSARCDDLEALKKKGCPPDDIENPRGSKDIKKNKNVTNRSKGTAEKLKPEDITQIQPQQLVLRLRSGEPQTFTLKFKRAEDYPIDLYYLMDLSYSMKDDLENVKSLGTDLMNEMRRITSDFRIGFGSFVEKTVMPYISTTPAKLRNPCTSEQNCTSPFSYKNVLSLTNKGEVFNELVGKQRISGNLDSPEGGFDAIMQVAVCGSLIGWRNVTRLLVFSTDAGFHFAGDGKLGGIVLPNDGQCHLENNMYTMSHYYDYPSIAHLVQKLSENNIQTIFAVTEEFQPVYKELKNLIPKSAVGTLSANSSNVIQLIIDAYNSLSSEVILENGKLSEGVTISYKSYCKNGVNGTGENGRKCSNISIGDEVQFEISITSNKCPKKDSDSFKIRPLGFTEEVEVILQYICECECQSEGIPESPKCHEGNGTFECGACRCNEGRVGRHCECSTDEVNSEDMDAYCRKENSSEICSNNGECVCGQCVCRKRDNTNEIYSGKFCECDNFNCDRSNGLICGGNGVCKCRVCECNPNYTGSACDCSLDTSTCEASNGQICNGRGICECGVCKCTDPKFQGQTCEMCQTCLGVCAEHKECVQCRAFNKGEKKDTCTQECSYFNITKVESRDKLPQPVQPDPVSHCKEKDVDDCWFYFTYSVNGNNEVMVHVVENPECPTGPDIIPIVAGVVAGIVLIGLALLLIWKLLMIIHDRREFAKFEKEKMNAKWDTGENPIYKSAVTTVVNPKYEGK
Procedure: All cell lines were purchased from the ATCC (Rockville, MD, USA). Jurkat E6.1 cells (expressing α4β1) were maintained as a stationary suspension culture in RPMI-1640 (Life Technologies, Carlsbad, CA, USA) supplemented with 2 mM glutamine and 10% FBS (fetal bovine serum). HEK293 cells were routinely cultured in EMEM (Lonza, Basel, Switzerland) enriched with 10% FBS, L-glutamine and nonessential amino acids. Cells were kept at 37 °C under a 5% CO2 humidified atmosphere.
The adhesion assays were performed as previously described. Briefly, black 96-well plates (Corning Costar, Celbio, Milan, Italy) were coated with FN (10 μg/mL). Cells were counted, stained with CellTracker green CMFDA (12.5 μM, 30 min at 37 °C, Life Technologies), and after three washes with 1% BSA (bovine serum albumin) in HBSS (Life Technologies) were preincubated with increasing concentrations of the new peptide ligands (10^−10–10^−4 M) or with the vehicle (methanol) for 30 min at 37 °C. Afterwards, cells were plated (500,000/well) on coated wells and incubated for 30 min at 37 °C. After three washes, adhered cells were lysed with 0.5% Triton X-100 in PBS (30 min at 4 °C) and fluorescence was measured (Ex485 nm/Em535 nm) in an EnSpire Multimode Plate Reader (PerkinElmer, Waltham, MA, USA).
The number of adherent cells was obtained by comparison with a standard curve prepared in the same plate using diverse concentrations of cells. Experiments were carried out in quadruplicate and repeated at least three times. Data analysis and IC50 values were calculated using GraphPad Prism 6.0 (GraphPad Software, San Diego, CA, USA).

[2] = Enzymatic stability in mouse serum; assay type: in vitro ADME; settings: 37 °C, HPLC; for amount of intact peptide: after 3 h
Procedure: Incubations were carried out at 37 °C. Aliquots of 20 µL were sampled over 180 min from the mixtures and the samples were diluted with 90 µL of glacial ACN for precipitating proteins. The mixtures were diluted with 90 µL of 0.5% AcOH and centrifuged (13,000× g, 15 min). The supernatants were collected and the amount of intact peptides was determined by RP HPLC. The experiments were performed in triplicate and repeated three times.

[3] = set-up: method as in PMID 17523052, PMID 11682211; settings: heparinized blood, plasma and rat liver, lung and intestinal homogenates; cited from earlier work
α4β1 integrin [4] = tested on: α4β1 integrin; set-up: method as in PMID 30051467; settings: VCAM-1; read-out: IC50, adhesion of α4β1 integrin-expressing cells to VCAM-1; cited from earlier work
[5] = set-up: method as in PMID 30051467; settings: incubation in mouse serum; cited from earlier work
isolated α4β1 integrin = tested on: isolated α4β1 integrin; set-up: method as in PMID 30051467; settings: read-out: IC50, affinity for the isolated α4β1 integrin; cited from earlier work

| SMILES | IC50 (α4β1 integrin [1]) [µM] | ability to modulate α4β1 integrin-mediated cell adhesion (in words) (α4β1 integrin [1]) | further results |
| --- | --- | --- | --- |
| Cc1ccccc1NC(=O)Nc1ccc(CC(=O)N[C@H](C)CC(=O)NCC(=O)O)cc1 [Compound 8, MPUPA-β^3-homoAla-Gly-OH] | > 5 |  |  |
| CCCNC(=O)[C@@H](CC(=O)NCC(=O)O)NC(=O)Cc1ccc(NC(=O)Nc2ccccc2C)cc1 [Compound 12, MPUPA-(R)-isoAsp(NHPr)-Gly-OH] | 0.0098 ± 0.0021 |  | amount of intact peptide [2]: around 80% |
| Cc1ccccc1NC(=O)Nc1ccc(CC(=O)N[C@@H](CC(C)C)C(=O)N[C@@H](CC(=O)O)C(=O)N[C@H](C(=O)N2CCC[C@H]2C(=O)O)C(C)C)cc1 [BIO1211, MPUPA-Leu-Asp-Val-Pro-OH, reference compound] ({NH(2-Me-phenyl)-CO}-[X1]LDVP-OH) |  |  | stability in physiological conditions (in words) [3]: poor stability; initial amount still present ([2]; after 1 h): about 10% |
| Cc1ccccc1NC(=O)Nc1ccc(CC(=O)N[C@@H](C)CC(=O)NCC(=O)O)cc1 [Compound 7, MPUPA-β^3-homoAla-Gly-OH] | 4.06 ± 0.78 |  |  |
| CCCNC(=O)[C@H](CC(=O)NCC(=O)O)NC(=O)Cc1ccc(NC(=O)Nc2ccccc2C)cc1 [Compound 11, MPUPA-isoAsp(NHPr)-Gly-OH] | > 5 |  |  |
| Cc1ccccc1NC(=O)Nc1ccc(CC(=O)N2CC[C@H](C(=O)NCC(=O)O)C2)cc1 [Compound 6] |  |  | IC50 (α4β1 integrin [4]): 0.00504 µM; enzymatic stability (in words) [5]: good enzymatic stability; IC50 (isolated α4β1 integrin): 0.0083 µM |

Further lines, with some results ahead:

| IC50 (α4β1 integrin [1]) [µM] | SMILES | ability to modulate α4β1 integrin-mediated cell adhesion (in words) (α4β1 integrin [1]) | further results |
| --- | --- | --- | --- |
| > 5 | CC(=O)N[C@H](CNC(=O)Cc1ccc(NC(=O)Nc2ccccc2C)cc1)C(=O)NCC(=O)O [Compound 14, MPUPA-Dap(Ac)-Gly-OH] | inactive |  |
| > 5 | Cc1ccccc1NC(=O)Nc1ccc(CC(=O)NC[C@@H](C)C(=O)NCC(=O)O)cc1 [Compound 10, MPUPA-β^2-homoAla-Gly-OH] | not able to modulate α4β1 integrin-mediated cell adhesion to a significant extent |  |
| 0.236 ± 0.047 | CC(=O)N[C@@H](CNC(=O)Cc1ccc(NC(=O)Nc2ccccc2C)cc1)C(=O)NCC(=O)O [Compound 13, MPUPA-(S)-Dap(Ac)-Gly-OH] | submicromolar range | amount of intact peptide [2]: ~91% |
| > 5 | Cc1ccccc1NC(=O)Nc1ccc(CC(=O)NC[C@H](C)C(=O)NCC(=O)O)cc1 [Compound 9, MPUPA-β^2-homoAla-Gly-OH] | not able to modulate α4β1 integrin-mediated cell adhesion to a significant extent |  |

From PMC8615975, “Design of α/β-Hybrid Peptide Ligands of α4β1 Integrin Equipped with a Linkable Side Chain for Chemoselective Biofunctionalization of Microstructured Materials” (Biomedicines, 2021)
